Test results as given in patent US20210207101A1, “Hybrid Thymus, Methods of Making, and Methods of Using to Induce Xenograft Tolerance, Restore Immunocompetence and Thymic Function” (THE TRUSTEES OF COLUMBIA UNIVERSITY IN THE CITY OF NEW YORK, priority 2018, published 2021).

What was measured:
[1] = test system: human thymopoiesis in grafted thymi; test: Human immune cell reconstitution after transplantation of 2DG-treated or untreated pig thymi into humanized NSG mice; assay type: in vivo, mouse; details: 100 mM 2DG for 12 hours before grafting; mice bled every 2-3 weeks
Protocol: Using the 2DG treatment to deplete the pig thymocytes and the Hamilton syringe (Method C described above) for injection of human thymic stromal cells, a hybrid thymus was generated and tested in vivo. Specifically, two vials of fetal pig thymus were thawed. After pipetting up and down to release as many thymocytes as possible, half of the pieces were treated with 100 mM 2DG for 12 hours and the other half remained untreated. On the next day, six vials of human fetal thymus were thawed. After pipetting up and down to release as many thymocytes as possible, liberase was used to digest and release the stromal cells and make a single-cell suspension. After depletion of human CD45+ cells using magnetic-activated cell sorting (MACS), 10 million thymic stromal cells were dissolved in 150 μl of cold Matrigel at a concentration of 66,000 cells per μl. Around 10 μl of the cells (around 660,000 thymic stromal cells) were injected into each fetal pig thymus piece (either 2DG-treated and non-treated). The pieces were kept with fine forceps at room temperature for about 2 minutes until the Matrigel solidified. Then, each piece was transferred to a well of a 96-well plate containing medium with 10% human serum. […] Every 2-3 weeks following transplantation, the mice were bled, and the level of human immune cell reconstitution was evaluated.

[2] = test system: pig thymocytes; test: Ex vivo depletion of thymocytes in pig thymic fragments; assay type: cell-based; details: 2DG 100 mM for 12 hours
Text: There are different strategies to deplete the thymocytes in pig thymic fragments ex vivo, including anti-pig CD3 immunotoxin and complement-mediated toxicity (rabbit serum as source of complements plus anti-pig CD2). However, these two strategies were not effective. […] Results not shown.
[…] The ratio of remaining live double positive CD4 and CD8 cells (DP) or single positive (SP) CD4 (SP-CD4) or SP-CD8 cells on double negative (DN) cells, which contain the stromal cells, was used as the readout.

Question: Which “effect of treatment of pig thymic fragments on human thymopoiesis in grafted thymi” value [1] does the source give for `O=CC[C@@H](O)[C@H](O)[C@H](O)CO` [2DG, 2-deoxyglucose] here?
Answer: did not affect human thymopoiesis

Question: What about the “ratio of remaining live DP or SP-CD4 or SP-CD8 cells on double negative (DN) cells” value [2] of the same compound?
Answer: lowest ratios
